Experimental data as given in PubChem BioAssay AID463199 (Broad Institute, 2010).
Calls of active or inactive are those of the source.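 The calls were made as follows: active = AC50, the dose giving half-maximal effect, exceeds a fixed cutoff for a compound that rescues yeast growth under heat; inactive = the rest, inconclusive results apart.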

test system: S. cerevisiae Burl-1 ts mutant growth, BacTiter-Glo, 38.5C 24 h; experiment: growth induction of Burl-1 ts yeast mutant, dose response, counter-screen for SUMOylation pathway inhibitor project, whole organism, S. cerevisiae, luminescence (AID 463199)

| SMILES | AC50 |
| --- | --- |
| Cc1ccc(SC[C@H](C)CN2CC[C@H](C)CCC2=O)cc1 | > 42 µM (inactive) |
| CC(=O)c1ccc(Nc2cc(C)nc3ccccc23)cc1 | > 42 µM (inactive) |
| Cc1cccn2c(=O)c3cc(C(=O)NCCc4ccccc4)sc3nc12 | > 42 µM (inactive) |
| COc1ccc(C(=O)N(CCc2ccccc2)Cc2ccccc2)c(OC)n1 | > 42 µM (inactive) |
| Cc1ccc2c(c1)N(CC(=O)NCC1CCCO1)C(=O)C(C)O2 (stereo not given) | > 42 µM (inactive) |
| Cc1ccc(C(=O)NC(NC(=O)c2ccc(C)cc2)C(Cl)Cl)cc1 | > 42 µM (inactive) |
| CN(C)CCOC(=O)CCc1ccccc1 | > 42 µM (inactive) |
| O=C(CCCc1nc(-c2ccc(Cl)cc2)no1)NC1CCCCC1 | > 42 µM (inactive) |
| CC(Cc1ccc(O)c(O)c1)C(C)Cc1ccc(O)c(O)c1 (stereo not given) | > 42 µM (inactive) |
| COc1cc2c(cc1NC(=O)c1cccnc1)oc1ccccc12 | > 42 µM (inactive) |
| O=C(NCCCN1CCOCC1)C1CCC(=O)N1CCc1ccccc1 (stereo not given) | > 42 µM (inactive) |
| COc1ccc(-c2nnc(SCC(=O)N3CCCCC3)o2)cc1 | > 42 µM (inactive) |
| Cc1ccc(N(CC(=O)Nc2cccc(C)c2)S(=O)(=O)c2cccc3nonc23)cc1 | > 21 µM (inactive) |
| O=C(NC1CCCCC1)N(Cc1cc2cc3c(cc2[nH]c1=O)OCCO3)C1CCCCC1 | > 42 µM (inactive) |
| CC1CCCN(C(=O)Cc2ccc(F)cc2)C1 (stereo not given) | > 42 µM (inactive) |
| Cc1ccc(S(=O)(=O)N2c3ccc(S(N)(=O)=O)cc3CC2C)cc1 (stereo not given) | > 42 µM (inactive) |
| Oc1ccc(Br)cc1/C=N/n1c(COc2ccccc2)n[nH]c1=S | > 42 µM (inactive) |
| COc1ccccc1CNc1ncnc2nc[nH]c12 | > 42 µM (inactive) |
| C/C(=N\NC(=O)c1cccc(N/N=C(\C)c2ccc([N+](=O)[O-])cc2)c1)c1ccc([N+](=O)[O-])cc1 | > 42 µM (inactive) |
| COc1cccc(N2CCN(C3CCCC(C)C3)CC2)c1 (stereo not given) | > 42 µM (inactive) |
| Cc1nc2c3ccccc3nc(NNC(=O)CCC(=O)N3CCCC(C)C3)n2n1 (stereo not given) | > 42 µM (inactive) |
| O=C(CN1CCN(Cc2ccc(Cl)cc2)CC1)N/N=C/c1ccncc1 | > 42 µM (inactive) |
| Cc1cc(NC(=O)c2ccc3c(c2)C(=O)N(C(C)(C)C)C3=O)no1 | > 42 µM (inactive) |
| Cc1cccc(CS(=O)(=O)Cc2ccc(C(=O)NCC3CCCO3)o2)c1 (stereo not given) | > 42 µM (inactive) |

| SMILES | AC50 |
| --- | --- |
| CCOc1ccccc1N(CC(=O)Nc1ccccc1C(=O)N1CCCC1)S(C)(=O)=O | > 42 µM (inactive) |
| Cc1nnc(NC(=O)c2cccc(S(=O)(=O)N3CCCC3)c2)s1 | > 42 µM (inactive) |
| CC(C(=O)Nc1ccccc1-c1ccccc1)N1CCN(Cc2ccccc2)CC1 (stereo not given) | > 42 µM (inactive) |
| O=c1c2ccccc2nc(COc2ccccc2)n1/N=C/c1cn[nH]c1-c1ccccc1 | > 42 µM (inactive) |
| Cc1c(C(=O)N2CCCC2)c(S(=O)(=O)Nc2cccc(Br)c2)c(C)n1C | > 42 µM (inactive) |
| COCCCNCC(O)COc1cccc2[nH]c(C)cc12 (stereo not given) | > 42 µM (inactive) |
| CCOc1ccc(S(=O)(=O)N2CCN(C(=O)CN3C(=O)NC4(CCCC4)C3=O)CC2)cc1 | > 42 µM (inactive) |
| O=C(c1cc(-c2ccc(Cl)cc2)n(-c2ccc(Cl)cc2)n1)N1CCOCC1 | > 42 µM (inactive) |
| Cc1ccc(/C=C/C(=O)O)cc1S(=O)(=O)N(CCO)CCO | > 42 µM (inactive) |
| COc1ccc(S(=O)(=O)Nc2ccc(NC(C)=O)cc2)cc1OC | > 42 µM (inactive) |
| COc1ccccc1NC(=O)Nc1ccc(Cl)c(S(=O)(=O)Nc2ccccc2OC)c1 | > 42 µM (inactive) |
| COCCN(C(=O)CSc1nnc(-c2ccc(C)cc2)n1N)c1c(N)n(Cc2ccccc2)c(=O)[nH]c1=O | > 42 µM (inactive) |
| Cc1cc(C)n(-c2ccc(C(=O)C(C#N)c3nc4ccccc4n3C)cc2)n1 (stereo not given) | > 42 µM (inactive) |
| O=C(CSc1ncn[nH]1)Nc1cccc(S(=O)(=O)N2CCCCCC2)c1 | > 42 µM (inactive) |
| CC1=NC2(CCCc3c2no[n+]3[O-])N(O)C1(C)C (stereo not given) | > 42 µM (inactive) |
| O=C(NC1CCCCC1)c1ccc2c(=O)n(CC3CCCO3)c(=O)[nH]c2c1 (stereo not given) | > 42 µM (inactive) |
| CCCC1Cc2c(sc3ncnc(N)c23)CO1 (stereo not given) | 9.15 µM |
| Cc1cc2ncc(C(=O)N=CN(C)C)cn2n1 | > 42 µM (inactive) |
| N#Cc1cc2c(nc1SCc1cccnc1)CCC2 | > 42 µM (inactive) |
| FC(F)(F)c1nc2ccccc2n2c(-c3ccc(Cl)cc3Cl)nnc12 | > 42 µM (inactive) |
| Cc1ccc(NC(=O)CSCC(=O)Nc2ccccc2N2CCCC2)cc1 | > 42 µM (inactive) |
| Cc1ccc(NC(=O)N[C@H](C(=O)O)C(C)C)c(C)c1 | > 42 µM (inactive) |
| O=C(C1CCC(CNc2c(N3CCCCC3)c(=O)c2=O)CC1)N1CCN(C2CCCCC2)CC1 (stereo not given) | > 42 µM (inactive) |
| O=C(Oc1ccc2c(c1)OCO2)c1cccs1 | > 42 µM (inactive) |

| SMILES | AC50 |
| --- | --- |
| O=[N+]([O-])c1cccc(-c2nc3ccc([N+](=O)[O-])cc3[nH]2)c1 | > 42 µM (inactive) |
| CC1=Nc2ccc(C)cc2N(Cc2ccccc2)C(=O)C1 | > 42 µM (inactive) |
| COc1ccc(NC(=O)C2CCCN(C(=O)Nc3cccc(OC)c3)C2)cc1 (stereo not given) | > 42 µM (inactive) |
| Cc1ccc(S(=O)(=O)N2CCN(C(=O)CSc3nc(N)cc(=O)[nH]3)CC2)c(C)c1 | > 42 µM (inactive) |
| CS(=O)(=O)NCc1ccc(C(=O)NC2CCCCC2)cc1 | > 42 µM (inactive) |
| CCc1ccc2nc(-c3cccc(C)c3)nc(SCC(=O)NCC3CCCO3)c2c1 (stereo not given) | > 42 µM (inactive) |
| Cc1cccc(CSc2ccc(-c3ccco3)nn2)c1 | > 42 µM (inactive) |
| CCOC(=O)C1=C[C@]2(CC)CCCN3CCc4c(n1c1ccccc41)[C@@H]32 | > 42 µM (inactive) |
| CN(CP(=O)(O)C(O)c1ccccc1)S(C)(=O)=O (stereo not given) | > 42 µM (inactive) |
| O=C(COC(=O)[C@@H]1CC(O)CN1S(=O)(=O)c1ccccc1[N+](=O)[O-])Nc1ccc2ccccc2c1 (stereo not given in full) | > 42 µM (inactive) |
| NC1=NC2(CCCC2)N=C(Nc2ccccc2)N1 | > 42 µM (inactive) |
| CCCCCCCCCCOC(=O)Cn1c(COc2ccc(OC)cc2)[n+](C)c2ccccc21 | > 42 µM (inactive) |
| COc1ccc(NC(=O)Cn2c(=O)cnc3ccccc32)cc1S(=O)(=O)N1CCCCC1 | > 42 µM (inactive) |
| CCOCCCNC(=O)C(c1ccc(OC)cc1)N(Cc1cccs1)C(=O)c1ccccn1 (stereo not given) | > 42 µM (inactive) |
| O=C1c2cc(N3CCCC3)c([N+](=O)[O-])cc2C(=O)N1c1ccccc1 | > 42 µM (inactive) |
| CC1C(=O)CC(c2ccccc2)NC1c1ccccc1 (stereo not given) | > 42 µM (inactive) |
| O=C(Nc1cnn(Cc2ccc(Cl)cc2)c1)c1ccc([N+](=O)[O-])cc1 | > 42 µM (inactive) |
| Cc1c(C(=O)OCC(=O)Nc2ccc(S(N)(=O)=O)cc2)oc2c1ccc1ccccc12 | > 42 µM (inactive) |
| O=C(c1cccnc1)N1CCCC(Nc2ccc(F)cc2)C1 (stereo not given) | > 42 µM (inactive) |
| COCCn1c(-c2ccc(Cl)cc2)cnc1SCC(=O)NCCc1ccc(OC)c(OC)c1 | > 42 µM (inactive) |
| CC1c2cc3c(cc2CCN1CC(=O)Nc1ccccc1)OCCCO3 (stereo not given) | > 42 µM (inactive) |
| CCc1ccccc1NC(=S)NNC(=O)c1ccccc1Cl | > 42 µM (inactive) |
